Experimental data from patent US20240360157A1, “TYK2 INHIBITORS” (BIOGEN MA INC., priority 2021, published 2024).
Structures can show the parent of a compound that is named as a salt.

Key:
Type in all cases: biochemical
[1] = target: human JAK3 catalytic kinase (JH1) domain (Homo sapiens (Human), UniProt P52333); assay: ADP-Glo Kinase Assay, recombinant JAK3 catalytic kinase (JH1) domain; conditions: recombinant JH1 domain 0.3 nM, 4 μM ATP, JAK3-974 peptide, mean, read-out: JAK3 biochem IC50 (nM) Mean
Experimental: (§1) Compounds of the disclosure were assessed for their ability to inhibit TYK2, JAK1, JAK2, and JAK3 activity. The inhibitory properties of the compounds of the disclosure described herein can be evidenced by testing in any one of the following protocols.
(§2) The kinase activity of recombinantly generated catalytic kinase (also known as JH1) domain of human JAK1, JAK2, JAK3 and TYK2 were evaluated in a plate-based assay using the ADP-Glo™ Kinase Assay platform. Specifically, 4 nM of recombinant JAK1 kinase domain is used to phosphorylate 50 μM of a JAK3-342 (sequence ALVDGYFRLTT) peptide in the presence of 35 μM ATP. Catalytic activities of recombinant JAK2, JAK3 and TYK2 kinase domain (0.2, 0.3 and 2 nM, respectively) are evaluated by the phosphorylation status of the JAK3-974 (50 μM; sequence LPLDKDYYVVR) peptide with the addition of ATP (15, 4 and 10 μM, respectively). The reactions proceed for 100 minutes and the catalytic activity is quantified by first depleting the unused ATP, converting the hydrolyzed ADP into ATP to generate luminescence in a luciferase reaction; which is the basis of the ADP-Glo platform. Compounds are tested at either 10 μM or 1 μM top concentration, 11 points of 3-fold dilution. The data is normalized and the percent activity versus log concentration of compound is fitted with a 4-parameter logistic model to generate a curve and an IC50 value.

[2] = target: human JAK2 catalytic kinase (JH1) domain (Homo sapiens (Human), UniProt O60674); assay: ADP-Glo Kinase Assay, recombinant JAK2 catalytic kinase (JH1) domain; conditions: recombinant JH1 domain 0.2 nM, 15 μM ATP, JAK3-974 peptide, mean, read-out: JAK2 biochem IC50 (nM) Mean
Experimental: as §1, §2

[3] = target: human TYK2 catalytic kinase (JH1) domain (Homo sapiens (Human), UniProt P29597); assay: ADP-Glo Kinase Assay, recombinant TYK2 catalytic kinase (JH1) domain; conditions: recombinant JH1 domain 2 nM, 10 μM ATP, JAK3-974 peptide, mean, read-out: TYK2 biochem IC50 (nM) Mean
Experimental: as §1, §2

[4] = target: human JAK1 catalytic kinase (JH1) domain (Homo sapiens (Human), UniProt P23458); assay: ADP-Glo Kinase Assay, recombinant JAK1 catalytic kinase (JH1) domain; conditions: recombinant JH1 domain 4 nM, 35 μM ATP, JAK3-342 peptide, mean, read-out: JAK1 biochem IC50 (nM) Mean
Experimental: as §1, §2

Sequence of human JAK2 catalytic kinase (JH1) domain (O60674 849-1124): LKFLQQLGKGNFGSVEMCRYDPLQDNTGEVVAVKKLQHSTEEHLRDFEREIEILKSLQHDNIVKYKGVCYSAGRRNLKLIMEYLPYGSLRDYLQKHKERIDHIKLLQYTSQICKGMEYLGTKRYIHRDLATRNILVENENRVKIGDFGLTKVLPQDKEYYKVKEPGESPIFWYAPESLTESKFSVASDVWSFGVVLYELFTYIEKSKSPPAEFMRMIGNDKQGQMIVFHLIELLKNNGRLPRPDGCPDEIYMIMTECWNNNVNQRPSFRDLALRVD
Sequence of human TYK2 catalytic kinase (JH1) domain (P29597 897-1176): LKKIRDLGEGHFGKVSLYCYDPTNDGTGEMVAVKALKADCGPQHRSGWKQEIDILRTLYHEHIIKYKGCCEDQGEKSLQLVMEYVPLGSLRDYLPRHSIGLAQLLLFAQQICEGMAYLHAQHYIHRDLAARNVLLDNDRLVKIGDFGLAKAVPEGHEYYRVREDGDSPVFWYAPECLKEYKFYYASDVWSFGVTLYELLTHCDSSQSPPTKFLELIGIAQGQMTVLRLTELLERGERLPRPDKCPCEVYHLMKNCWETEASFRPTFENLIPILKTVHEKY
Sequence of human JAK3 catalytic kinase (JH1) domain (P52333 822-1111): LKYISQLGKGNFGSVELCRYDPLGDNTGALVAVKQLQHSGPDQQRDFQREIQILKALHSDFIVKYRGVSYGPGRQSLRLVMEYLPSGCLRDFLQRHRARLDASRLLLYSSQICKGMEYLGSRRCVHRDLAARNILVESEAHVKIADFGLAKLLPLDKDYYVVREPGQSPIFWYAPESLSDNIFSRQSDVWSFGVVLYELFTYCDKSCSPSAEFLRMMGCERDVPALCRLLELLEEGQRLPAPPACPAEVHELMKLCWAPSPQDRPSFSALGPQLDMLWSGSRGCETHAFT
Sequence of human JAK1 catalytic kinase (JH1) domain (P23458 875-1153): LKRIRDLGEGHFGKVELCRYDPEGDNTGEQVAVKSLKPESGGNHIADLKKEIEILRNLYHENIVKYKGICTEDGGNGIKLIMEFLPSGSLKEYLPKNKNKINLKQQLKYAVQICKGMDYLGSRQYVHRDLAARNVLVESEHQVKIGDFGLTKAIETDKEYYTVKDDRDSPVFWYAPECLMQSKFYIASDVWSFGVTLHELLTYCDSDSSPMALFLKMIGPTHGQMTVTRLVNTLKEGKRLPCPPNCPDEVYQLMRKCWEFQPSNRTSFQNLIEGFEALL

SMILES	IC50 [1] [nM]	IC50 [2] [nM]	IC50 [3] [nM]	IC50 [4] [nM]
COc1ncnc(-c2cc3c(N4CC5CCC(C4)N5C(=O)[C@@H]4C[C@H]4F)ccnn3c2)c1F [Example 107, (3-(6-(5-fluoro-6-methoxypyrimidin-4-yl)pyrrolo[1,2-b]pyridazin-4-yl)-3,8-diazabicyclo[3.2.1]octan-8-yl)((1S,2R)-2-fluorocyclopropyl)methanone]	10000	1680	92.3	862
COc1cc(-c2nc3c(N4CC5CCC(C4)N5S(=O)(=O)C4CC4)ccnc3[nH]2)ccn1 [Example 196]	1000	168	66.3	216
O=C(C1C(F)(F)C12CCC2)N1C2CCC1CN(c1ncnn3cc(-c4cnn(C(F)F)c4)cc13)C2 (centres unmarked) [Example 7, (3-(6-(1-(difluoromethyl)-1H-pyrazol-4-yl)pyrrolo[2,1-f][1,2,4]triazin-4-yl)-3,8-diazabicyclo[3.2.1]octan-8-yl)(2,2-difluorospiro[2.3]hexan-1-yl)methanone]	6300	3960	156	960
C[C@]1(F)C[C@H](C(=O)N2C3CCC2CN(c2ncnn4cc(-c5cnn(C(F)F)c5)cc24)C3)C1 [Example 34, (3-(6-(1-(difluoromethyl)-1H-pyrazol-4-yl)pyrrolo[2,1-f][1,2,4]triazin-4-yl)-3,8-diazabicyclo[3.2.1]octan-8-yl)((1r,3r)-3-fluoro-3-methylcyclobutyl)methanone trifluoroacetate]	9510	7520	510	3190
O=C([C@@H]1C[C@H]1F)N1C2CCC1CN(c1ccnn3cc([C@@H]4CC4(F)F)cc13)C2 (single isomer, unassigned) [Example 136]	≥ 10000	≥ 10000	381	6180
O=C([C@H]1CC1(F)F)N1C2CCC1CN(c1ncnn3cc(-c4cnn(C(F)F)c4)cc13)C2 [Example 8, ((R)-2,2-difluorocyclopropyl)(3-(6-(1-(difluoromethyl)-1H-pyrazol-4-yl)pyrrolo[2,1-f][1,2,4]triazin-4-yl)-3,8-diazabicyclo[3.2.1]octan-8-yl)methanone]	1690	3740	200	226
N#Cc1ccc(-c2cc3c(N4CC5CCC(C4)N5C(=O)[C@@H]4C[C@H]4F)ncnc3[nH]2)cn1 [Example 227, 5-(4-(8-((1S,2R)-2-fluorocyclopropane-1-carbonyl)-3,8-diazabicyclo[3.2.1]octan-3-yl)-7H-pyrrolo[2,3-d]pyrimidin-6-yl)picolinonitrile]	1590	418	31.6	268
O=C([C@@H]1C[C@H]1F)N1C2CCC1CN(c1ncnc3[nH]c(-c4ccc(C(F)(F)F)nc4)cc13)C2 [Example 228, ((1S,2R)-2-fluorocyclopropyl)(3-(6-(6-(trifluoromethyl)pyridin-3-yl)-7H-pyrrolo[2,3-d]pyrimidin-4-yl)-3,8-diazabicyclo[3.2.1]octan-8-yl)methanone]	7440	813	41.2	315
O=C([C@H]1C[C@@H]1F)N1C2CCC1CN(c1ncnn3cc(-c4cnn(C(F)F)c4)cc13)C2 (single isomer, unassigned) [Example 75]	5060	≥ 10000	456	1580
O=C(C1CC1)N1C2CCC1CN(c1ncnn3cc(-c4cnn([C@@H]5CCOC5)c4)cc13)C2 [Example 156, cyclopropyl(3-(6-(1-((R)-tetrahydrofuran-3-yl)-1H-pyrazol-4-yl)pyrrolo[2,1-f][1,2,4]triazin-4-yl)-3,8-diazabicyclo[3.2.1]octan-8-yl)methanone]	3850	3860	251	1500
Cn1cc(-c2cc3c(N4CC5CCC(C4)N5S(=O)(=O)C4CC4)ncnn3c2)cn1 [Example 187, 4-(8-(cyclopropylsulfonyl)-3,8-diazabicyclo[3.2.1]octan-3-yl)-6-(1-methyl-1H-pyrazol-4-yl)pyrrolo[2,1-f][1,2,4]triazine]	9430	5410	643	9660
O=C(C1CC1)N1C2CCC1CN(c1ncnn3cc(-c4ccccc4)cc13)C2 [Example 177]	4670	10000	300	1230
O=C([C@@H]1C[C@H]1F)N1C2CCC1CN(c1ccnn3cc(-c4ccnc(OC(F)F)c4)cc13)C2 [Example 111, (3-(6-(2-(difluoromethoxy)pyridin-4-yl)pyrrolo[1,2-b]pyridazin-4-yl)-3,8-diazabicyclo[3.2.1]octan-8-yl)((1S,2R)-2-fluorocyclopropyl)methanone]	981	57	3.6	62
N#Cc1ccc(-c2cc3c(N4CC5CCC(C4)N5C(=O)[C@@H]4C[C@H]4F)ccnn3c2)cn1 [Example 103, 5-(4-(8-((1S,2R)-2-fluorocyclopropane-1-carbonyl)-3,8-diazabicyclo[3.2.1]octan-3-yl)pyrrolo[1,2-b]pyridazin-6-yl)picolinonitrile]	913	60	5.2	77
Cn1cc(-c2cc3c(N4CC5CCC(C4)N5C(=O)[C@H]4C[C@H]4C#N)ncnn3c2)cn1 (racemic) [Example 65, Rac-(1R,2S)-2-(3-(6-(1-methyl-1H-pyrazol-4-yl)pyrrolo[2,1-f][1,2,4]triazin-4-yl)-3,8-diazabicyclo[3.2.1]octane-8-carbonyl)cyclopropane-1-carbonitrile]	6790	9840	1210	6090
Cn1cc(-c2cn3ncc(F)c(N4CC5CCC(C4)N5C(=O)[C@@H]4C[C@H]4F)c3n2)cn1 (stereo in doubt) [Example 141, (3-(7-fluoro-2-(1-methyl-1H-pyrazol-4-yl)imidazo[1,2-b]pyridazin-8-yl)-3,8-diazabicyclo[3.2.1]octan-8-yl)((1S,2R)-2-fluorocyclopropyl)methanone]	285	97	9.4	57
O=C([C@@H]1C[C@H]1F)N1C2CCC1CN(c1ccnc3[nH]c(C4(F)CC4)nc13)C2 [Example 210, ((1S,2R)-2-fluorocyclopropyl)(3-(2-(1-fluorocyclopropyl)-3H-imidazo[4,5-b]pyridin-7-yl)-3,8-diazabicyclo[3.2.1]octan-8-yl)methanone]	5520	2600	398	798
O=C(C1CC1)N1C2CCC1CN(c1ncnn3cc(-c4ccccc4F)cc13)C2 [Example 182]	8600	10000	704	3660
Cn1cc(-c2cc3c(N4CC5CCC(C4)N5S(=O)(=O)C4CC4)ncnc3[nH]2)cn1 [Example 191]	650	601	102	1780
Cn1cc(-c2cc3c(N4CC5CCC(C4)N5C(=O)[C@H]4C[C@H]4F)ncnn3c2)cn1 (single isomer, unassigned) [Example 79]	≥ 10000	≥ 10000	626	9330
Cn1cc(-c2cc3c(N4CC5CCC(C4)N5C(=O)C4CC4)ncnn3c2)c(F)n1 [Example 145]	6520	6020	202	2360
O=C([C@H]1C[C@@H]1F)N1C2CCC1CN(c1ncnn3cc(-c4cnn(C(F)F)c4)cc13)C2 (racemic) [Example 54, Rac-(3-(6-(1-(difluoromethyl)-1H-pyrazol-4-yl)pyrrolo[2,1-f][1,2,4]triazin-4-yl)-3,8-diazabicyclo[3.2.1]octan-8-yl)((1R,2S)-2-fluorocyclopropyl)methanone]	4230	1320	37.1	645
O=C([C@@H]1CC1(F)F)N1C2CCC1CN(c1ccnn3cc(C4CC4)cc13)C2 [Example 25, (3-(6-cyclopropylpyrrolo[1,2-b]pyridazin-4-yl)-3,8-diazabicyclo[3.2.1]octan-8-yl)((S)-2,2-difluorocyclopropyl)methanone]	10000	10000	662	8060
